By IC50 is commonly meant the concentration needed to halve the response being measured. The term EC50 denotes the concentration needed to bring the measured effect to its halfway point. What is called AC50 is the concentration giving half of the maximal activity seen.

Assay [1] concerns the target T1, Tyrosine-protein phosphatase non-receptor type 22 (Homo sapiens, UniProt Q9Y2R2).
T1 sequence (Q9Y2R2 whole entry): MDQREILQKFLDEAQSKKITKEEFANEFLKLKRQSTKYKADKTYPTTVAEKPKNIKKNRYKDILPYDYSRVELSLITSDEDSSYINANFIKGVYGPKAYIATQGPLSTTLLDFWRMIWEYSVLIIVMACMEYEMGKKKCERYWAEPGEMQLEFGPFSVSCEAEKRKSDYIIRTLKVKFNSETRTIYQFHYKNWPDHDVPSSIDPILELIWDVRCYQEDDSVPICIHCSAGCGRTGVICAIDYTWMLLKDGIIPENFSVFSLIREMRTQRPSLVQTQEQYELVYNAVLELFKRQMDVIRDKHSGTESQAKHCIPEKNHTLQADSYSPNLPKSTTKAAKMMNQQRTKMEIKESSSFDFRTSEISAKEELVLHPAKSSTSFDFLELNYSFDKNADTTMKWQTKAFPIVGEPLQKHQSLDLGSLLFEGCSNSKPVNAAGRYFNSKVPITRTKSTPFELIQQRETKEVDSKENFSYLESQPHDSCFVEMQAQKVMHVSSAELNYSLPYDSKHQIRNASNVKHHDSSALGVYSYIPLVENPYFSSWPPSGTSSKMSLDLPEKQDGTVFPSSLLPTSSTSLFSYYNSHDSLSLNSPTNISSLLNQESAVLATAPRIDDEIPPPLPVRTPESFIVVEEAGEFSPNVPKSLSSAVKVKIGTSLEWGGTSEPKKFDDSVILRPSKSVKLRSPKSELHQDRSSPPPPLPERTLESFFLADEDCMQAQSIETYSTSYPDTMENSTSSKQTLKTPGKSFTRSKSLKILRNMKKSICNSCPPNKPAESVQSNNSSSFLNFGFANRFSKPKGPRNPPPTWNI
Briefly: LYP1 Fluorescent Assay using OMFP substrate for In Vitro dose response studies. [Related pubchem assays (depositor defined):AID1779, AID1784, AID435024].

Assay [2] concerns the target T2, Tyrosine-protein phosphatase non-receptor type 12 (Homo sapiens, UniProt Q05209).
T2 sequence (Q05209 whole entry): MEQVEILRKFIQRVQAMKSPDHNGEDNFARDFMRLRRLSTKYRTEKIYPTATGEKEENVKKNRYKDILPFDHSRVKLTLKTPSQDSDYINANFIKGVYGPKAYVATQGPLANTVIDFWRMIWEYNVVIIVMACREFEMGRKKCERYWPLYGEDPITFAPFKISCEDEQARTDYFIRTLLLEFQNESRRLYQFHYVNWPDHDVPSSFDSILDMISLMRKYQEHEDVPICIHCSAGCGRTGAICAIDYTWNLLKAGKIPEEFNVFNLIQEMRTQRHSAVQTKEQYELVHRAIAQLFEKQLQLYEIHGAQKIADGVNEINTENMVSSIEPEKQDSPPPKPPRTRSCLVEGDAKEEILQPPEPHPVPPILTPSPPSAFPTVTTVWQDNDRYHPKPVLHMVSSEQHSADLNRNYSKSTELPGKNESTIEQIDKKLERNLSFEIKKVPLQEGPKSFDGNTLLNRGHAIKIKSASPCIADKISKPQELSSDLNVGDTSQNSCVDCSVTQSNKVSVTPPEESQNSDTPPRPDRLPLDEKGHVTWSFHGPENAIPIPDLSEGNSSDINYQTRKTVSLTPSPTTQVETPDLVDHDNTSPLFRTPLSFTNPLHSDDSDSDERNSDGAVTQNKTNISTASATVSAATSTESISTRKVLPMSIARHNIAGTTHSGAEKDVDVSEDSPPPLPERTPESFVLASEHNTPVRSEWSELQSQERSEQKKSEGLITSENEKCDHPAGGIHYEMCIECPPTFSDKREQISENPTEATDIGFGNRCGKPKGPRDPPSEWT
Briefly: SAR Selectivity Analysis of small molecule inhibitors of PEST using pCAP in a fluorescence assay. [Related pubchem assays (depositor defined):AID1779, AID1784, AID2135]. The class given is functional.

Assay [3] has as its target T1, Tyrosine-protein phosphatase non-receptor type 22. Briefly: PubChem AID 2135.
The target is the same in assay [4]. Briefly: SAR LYP1 Fluorescent Assay using OMFP substrate for In Vitro dose response studies - Set 4. [Related pubchem assays (depositor defined):AID1779, AID1784, AID2140, AID2686]. The class given is functional.
Assay [5] has as its target T3, Neuropeptides B/W receptor type 1 (Homo sapiens, UniProt P48145).
T3 sequence (P48145 whole entry): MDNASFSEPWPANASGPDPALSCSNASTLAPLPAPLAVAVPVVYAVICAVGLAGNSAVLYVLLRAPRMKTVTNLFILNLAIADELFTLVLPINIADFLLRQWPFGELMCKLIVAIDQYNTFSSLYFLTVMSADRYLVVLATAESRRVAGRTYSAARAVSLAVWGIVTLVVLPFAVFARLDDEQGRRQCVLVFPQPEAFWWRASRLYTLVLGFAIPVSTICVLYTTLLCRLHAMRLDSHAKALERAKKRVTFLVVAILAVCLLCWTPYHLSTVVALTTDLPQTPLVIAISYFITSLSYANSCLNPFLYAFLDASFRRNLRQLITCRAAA
Briefly: Fluorescence-based dose response cell-based high throughput screening assay to identify antagonists of the G-protein coupled receptor 7 (GPR7). [Related pubchem assays: 1952 (Screening assay (GPR7 antagonists).), 1880 (Summary AID.)]. The class given is functional.

In assay [6] the test system is BJ. Briefly: BJ-TERT-LT-ST fibroblast viability loss – cell-based, RAS-independent, luminescence, dose response (AID 1935).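 Also: BJ fibroblasts immortalized with TERT plus LT and ST oncogenes.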 The class given is functional. As to conditions: Homo sapiens.
For assay [7], the target named is Melanocortin receptor 4 (Homo sapiens, UniProt P32245). The assay is classed as functional, cell-based.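 Also: Cell-based assay with luminescence read-out, confirmatory dose-response testing for agonist activity of biased ligands at MC4R; human U2OS cells with tagged receptor and beta-arrestin; potency of agonists that increase receptor coupling to beta-arrestin.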
In assay [8] the target is Mitochondrial peptide methionine sulfoxide reductase (Bos taurus, UniProt P54149). Briefly: Absorbance-based biochemical high throughput dose response assay for activators of Methionine sulfoxide reductase A (MsrA). The assay is classed as functional.
Assay [9] concerns the target Lysine-specific demethylase 4C (Homo sapiens, UniProt Q9H3R0). Put plainly: inhibition of JMJD2C H3K9me3 demethylation – biochemical, DELFIA europium, cherry-picked samples, dose response (AID 488835). The assay is classed as functional.
Assay [10] concerns the target DNA (cytosine-5)-methyltransferase 1 (Homo sapiens, UniProt P26358). Briefly: inhibition of DNA methylation by DNMT1 – biochemical, fluorescent molecular beacon, confirmation (AID 602386). The assay is classed as functional.
Assay [11] concerns the target Serine/threonine-protein phosphatase PP1-alpha catalytic subunit (Homo sapiens, UniProt P62136). Put plainly: inhibition of protein phosphatase 1 activity – biochemical, fluorescence, dose response (AID 2394).
The target of assay [12] is UDP-galactopyranose mutase (Mycobacterium tuberculosis, UniProt P9WIQ1). Put plainly: Inhibitors of Mycobacterium tuberculosis UDP-galactopyranose mutase (UGM) enzyme Measured in Biochemical System Using Plate Reader - 2105-02_Inhibitor_Dose_CherryPick_Activity. [Related pubchem assays (depositor defined):AID504439].

Where “and” joins values, the source holds several entries; their conditions need not be identical. Identical values can stand only once. Calls of active or inactive are those of the source.

Chain of Melanocortin receptor 4 (P32245 whole entry): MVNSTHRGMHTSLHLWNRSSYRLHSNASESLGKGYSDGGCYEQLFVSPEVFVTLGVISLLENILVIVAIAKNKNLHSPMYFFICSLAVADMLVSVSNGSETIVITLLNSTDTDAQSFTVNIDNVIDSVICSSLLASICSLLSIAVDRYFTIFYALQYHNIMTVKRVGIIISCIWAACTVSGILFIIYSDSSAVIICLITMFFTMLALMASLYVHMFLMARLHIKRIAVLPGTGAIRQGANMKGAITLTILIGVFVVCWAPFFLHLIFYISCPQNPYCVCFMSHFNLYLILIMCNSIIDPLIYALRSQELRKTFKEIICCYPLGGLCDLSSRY
Chain of Mitochondrial peptide methionine sulfoxide reductase (P54149 whole entry): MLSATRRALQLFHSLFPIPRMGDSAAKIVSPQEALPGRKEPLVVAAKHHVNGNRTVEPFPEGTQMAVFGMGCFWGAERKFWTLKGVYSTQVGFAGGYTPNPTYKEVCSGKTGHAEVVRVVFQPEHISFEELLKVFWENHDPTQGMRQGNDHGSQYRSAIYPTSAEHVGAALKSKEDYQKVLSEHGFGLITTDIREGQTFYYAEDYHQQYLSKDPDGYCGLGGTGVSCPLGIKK
Chain of Serine/threonine-protein phosphatase PP1-alpha catalytic subunit (P62136 whole entry): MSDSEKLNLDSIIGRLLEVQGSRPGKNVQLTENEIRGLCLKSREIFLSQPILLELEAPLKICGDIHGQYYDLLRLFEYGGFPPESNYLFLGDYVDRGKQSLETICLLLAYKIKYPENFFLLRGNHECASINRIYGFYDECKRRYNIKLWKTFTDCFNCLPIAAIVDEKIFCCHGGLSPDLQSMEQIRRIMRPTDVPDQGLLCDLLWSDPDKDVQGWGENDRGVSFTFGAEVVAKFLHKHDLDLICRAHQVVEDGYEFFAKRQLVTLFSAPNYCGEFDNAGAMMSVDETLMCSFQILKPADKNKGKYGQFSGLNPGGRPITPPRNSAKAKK
Chain of Lysine-specific demethylase 4C (Q9H3R0 whole entry): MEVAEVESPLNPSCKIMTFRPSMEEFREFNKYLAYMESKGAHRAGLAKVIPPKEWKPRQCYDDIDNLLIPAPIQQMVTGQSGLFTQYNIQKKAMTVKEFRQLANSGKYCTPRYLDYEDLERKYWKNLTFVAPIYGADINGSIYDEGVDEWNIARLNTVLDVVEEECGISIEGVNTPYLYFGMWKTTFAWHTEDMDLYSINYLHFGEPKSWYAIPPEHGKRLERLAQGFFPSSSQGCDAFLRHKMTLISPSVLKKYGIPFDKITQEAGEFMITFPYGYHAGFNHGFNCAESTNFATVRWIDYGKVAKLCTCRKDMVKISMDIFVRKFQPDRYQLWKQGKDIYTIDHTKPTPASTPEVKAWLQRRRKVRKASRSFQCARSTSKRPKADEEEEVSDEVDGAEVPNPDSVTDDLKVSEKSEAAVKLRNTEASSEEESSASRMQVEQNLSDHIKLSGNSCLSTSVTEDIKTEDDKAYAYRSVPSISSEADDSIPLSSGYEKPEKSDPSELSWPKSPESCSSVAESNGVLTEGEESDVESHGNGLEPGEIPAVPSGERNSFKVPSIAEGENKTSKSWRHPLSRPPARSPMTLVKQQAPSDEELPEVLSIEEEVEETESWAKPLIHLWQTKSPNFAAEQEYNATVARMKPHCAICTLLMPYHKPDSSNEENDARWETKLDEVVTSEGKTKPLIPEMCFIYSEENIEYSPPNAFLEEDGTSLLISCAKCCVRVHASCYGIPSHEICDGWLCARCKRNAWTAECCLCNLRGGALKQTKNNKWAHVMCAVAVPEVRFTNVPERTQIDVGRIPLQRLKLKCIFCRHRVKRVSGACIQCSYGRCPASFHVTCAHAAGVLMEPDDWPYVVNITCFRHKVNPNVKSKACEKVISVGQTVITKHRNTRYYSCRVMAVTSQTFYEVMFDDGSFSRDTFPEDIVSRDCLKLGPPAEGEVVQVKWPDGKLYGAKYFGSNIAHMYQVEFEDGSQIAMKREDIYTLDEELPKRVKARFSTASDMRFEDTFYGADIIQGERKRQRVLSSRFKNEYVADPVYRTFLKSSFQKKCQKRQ
Chain of UDP-galactopyranose mutase (P9WIQ1 whole entry): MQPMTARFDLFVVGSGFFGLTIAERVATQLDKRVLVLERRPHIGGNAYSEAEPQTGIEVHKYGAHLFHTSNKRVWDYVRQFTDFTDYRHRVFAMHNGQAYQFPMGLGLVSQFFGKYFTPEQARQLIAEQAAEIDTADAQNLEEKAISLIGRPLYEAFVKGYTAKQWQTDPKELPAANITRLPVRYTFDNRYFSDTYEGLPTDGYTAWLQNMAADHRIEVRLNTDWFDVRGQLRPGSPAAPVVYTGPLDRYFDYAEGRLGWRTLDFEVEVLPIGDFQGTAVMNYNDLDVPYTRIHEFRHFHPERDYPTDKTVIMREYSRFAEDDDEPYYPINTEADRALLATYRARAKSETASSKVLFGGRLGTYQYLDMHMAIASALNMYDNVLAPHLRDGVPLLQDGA
Chain of DNA (cytosine-5)-methyltransferase 1 (P26358 whole entry): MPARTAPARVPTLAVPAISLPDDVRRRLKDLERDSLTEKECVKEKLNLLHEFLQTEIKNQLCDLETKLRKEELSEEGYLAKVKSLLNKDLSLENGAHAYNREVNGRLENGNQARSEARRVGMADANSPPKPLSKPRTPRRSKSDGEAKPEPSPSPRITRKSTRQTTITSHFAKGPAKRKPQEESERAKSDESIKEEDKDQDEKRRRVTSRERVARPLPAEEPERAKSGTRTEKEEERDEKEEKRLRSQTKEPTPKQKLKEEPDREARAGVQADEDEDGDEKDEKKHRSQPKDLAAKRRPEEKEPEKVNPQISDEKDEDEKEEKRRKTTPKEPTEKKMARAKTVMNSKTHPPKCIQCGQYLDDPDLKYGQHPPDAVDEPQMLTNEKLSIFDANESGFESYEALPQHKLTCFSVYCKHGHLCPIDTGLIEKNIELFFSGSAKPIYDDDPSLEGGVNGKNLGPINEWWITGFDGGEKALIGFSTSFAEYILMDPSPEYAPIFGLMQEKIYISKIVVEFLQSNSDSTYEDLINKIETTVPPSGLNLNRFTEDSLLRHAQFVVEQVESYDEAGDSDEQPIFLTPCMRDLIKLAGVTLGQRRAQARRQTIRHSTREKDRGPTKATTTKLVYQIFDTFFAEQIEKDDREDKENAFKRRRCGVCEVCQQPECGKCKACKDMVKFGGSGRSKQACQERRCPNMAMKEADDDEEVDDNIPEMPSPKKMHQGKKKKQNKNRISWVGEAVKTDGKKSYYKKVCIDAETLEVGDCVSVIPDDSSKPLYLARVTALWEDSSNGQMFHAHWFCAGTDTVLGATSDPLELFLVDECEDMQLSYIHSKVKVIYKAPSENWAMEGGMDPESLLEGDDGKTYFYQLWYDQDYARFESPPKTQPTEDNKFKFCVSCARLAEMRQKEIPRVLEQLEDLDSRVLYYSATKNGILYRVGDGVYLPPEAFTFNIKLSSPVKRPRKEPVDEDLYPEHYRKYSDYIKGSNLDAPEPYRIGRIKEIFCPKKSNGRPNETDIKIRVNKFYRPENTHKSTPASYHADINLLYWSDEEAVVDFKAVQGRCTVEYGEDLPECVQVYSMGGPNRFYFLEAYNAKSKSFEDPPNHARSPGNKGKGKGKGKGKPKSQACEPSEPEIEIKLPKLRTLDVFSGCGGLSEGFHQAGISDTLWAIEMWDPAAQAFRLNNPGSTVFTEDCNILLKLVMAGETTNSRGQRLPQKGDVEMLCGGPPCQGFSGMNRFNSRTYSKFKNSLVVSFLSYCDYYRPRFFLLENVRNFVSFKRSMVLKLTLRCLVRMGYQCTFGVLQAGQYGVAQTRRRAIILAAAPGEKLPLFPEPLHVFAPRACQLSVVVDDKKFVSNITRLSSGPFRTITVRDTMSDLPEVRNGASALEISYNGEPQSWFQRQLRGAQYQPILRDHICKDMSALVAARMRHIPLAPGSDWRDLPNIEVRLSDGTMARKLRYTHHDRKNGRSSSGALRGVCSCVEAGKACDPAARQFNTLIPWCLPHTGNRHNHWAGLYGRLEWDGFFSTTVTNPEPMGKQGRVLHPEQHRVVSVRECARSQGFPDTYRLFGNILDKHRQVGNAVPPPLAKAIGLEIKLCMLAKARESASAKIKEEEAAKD

As for `O=C(O)COc1ccc(/C=N/NC(=O)c2ccc(-c3csc(Nc4ccc(Cl)cc4)n3)cc2)cc1`, the IC50 is > 99 µM (inactive) in assay [1]; 334 nM (active) and 325 nM (active) in assay [2]; 0.113 µM (active) in assay [3]; 1.47 µM (active) in [4].

With `CCN1/C(=C/c2ccc3cc(C)ccc3[n+]2CC)Sc2cc(C)c(C)cc21`, the IC50 in assay [5] is 9.2 µM (active). Also, the EC50 in assay [6] was 13.7 µM (inconclusive); in [7], > 3.3 µM (active).

On to `Cc1oc2c(c1C(=O)c1ccccc1)C(=O)C(=O)c1ccccc1-2`, for which, in [8], the EC50 is 63.2 µM (inactive).

On to `CSc1ccc(C=NNc2ccc(S(=O)(=O)Nc3ccccc3C(=O)O)cc2[N+](=O)[O-])cc1`, for which, in assay [9], the AC50 is 5.43 µM (active). Moreover, the IC50 in [10] was 3.26 µM (active).

As to `O=C1CCCC2=C1C1(O)C(=O)c3ccccc3C1(O)O2` (configuration not stated), the half-maximal inhibitory concentration (IC50) in [11] was > 67 µM (not active).

As to `Nc1ccc2nc3c(O)nc(S)nc3nc2c1`, the AC50 in assay [12] is 3.57 µM (active).

For the origin of these results see ChEMBL document CHEMBL1201862, “PubChem BioAssay data set” (2004).
